Among the test systems are SK-MEL-5 melanoma; MOLT-4 leukemia; PC-3 prostate; SW-620 colon; ACHN renal; SK-MEL-28 melanoma; UO-31 renal; NCI/ADR-RES ovarian; OVCAR-8 ovarian; NCI-H226 lung; 786-0 renal.
What all share (assay): NCI-60 cell line screen, 48 h

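Values below derive from 48-hour exposures of cells grown in 96-well plates, with endpoints linearly interpolated between the two concentrations bracketing the appropriate inhibition level. TGI marks complete inhibition of growth.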 Bounds are passed on as bounds.

In the case of `CCOC(=O)Cn1c2ccc(Br)cc2c2nc3ccccc3nc21`, the TGI in the assay with SK-MEL-5 melanoma, in the assay with MOLT-4 leukemia, in the assay with PC-3 prostate, with SW-620 colon, with ACHN renal and in the assay with SK-MEL-28 melanoma was over 100 µM in each case. Besides, the TGI in the assay with UO-31 renal, in the assay with NCI/ADR-RES ovarian, in the assay with OVCAR-8 ovarian, in the assay with NCI-H226 lung and in the assay on 786-0 renal was over 100 µM each time.
On to `C=C(C)[C@@H]1CCC2=C[C@H](C/C(C)=C\C3=CC(C)=C(O3)[C@H]1O)OC2=O`, for which the TGI with SK-MEL-5 melanoma, in the assay with MOLT-4 leukemia, in the assay on PC-3 prostate, in the assay on SW-620 colon, with ACHN renal and in the assay with SK-MEL-28 melanoma was over 100 µM in each case. In addition, the TGI with UO-31 renal, with NCI/ADR-RES ovarian, with OVCAR-8 ovarian, in the assay with NCI-H226 lung and in the assay on 786-0 renal was over 100 µM each time.
For `Cc1c(/C=N/NC(=S)Nc2ccc(Cl)cc2)c(=O)n(-c2ccccc2)n1C`, the TGI in the assay on SK-MEL-5 melanoma was over 31.6 µM; in the assay on MOLT-4 leukemia, over 100 µM; with PC-3 prostate, over 100 µM; in the assay on SW-620 colon, over 100 µM; in the assay on ACHN renal it was 31.9 µM; with SK-MEL-28 melanoma, over 100 µM. For the same molecule, the TGI with UO-31 renal was over 100 µM; in the assay on NCI/ADR-RES ovarian, 48.9 µM; with OVCAR-8 ovarian, over 60.6 µM; in the assay with NCI-H226 lung, 53.8 µM; in the assay on 786-0 renal it was 31.2 µM.
Regarding `OCC(O)CNc1ncnc2ccccc12` (stereo unspecified), the TGI in the assay on SK-MEL-5 melanoma, with MOLT-4 leukemia, in the assay with PC-3 prostate, in the assay on SW-620 colon, in the assay on ACHN renal and in the assay on SK-MEL-28 melanoma was over 100 µM throughout. Besides, the TGI with UO-31 renal, in the assay on NCI/ADR-RES ovarian, in the assay on OVCAR-8 ovarian, in the assay with NCI-H226 lung and in the assay with 786-0 renal was over 100 µM each time.
As for `Clc1cc(Cl)c2cc3cccc[n+]3cc2c1Cl`, the TGI in the assay on SK-MEL-5 melanoma was found to be 30.5 µM; in the assay on MOLT-4 leukemia it was 31.3 µM; in the assay with PC-3 prostate, 29.2 µM; in the assay with SW-620 colon, 34.3 µM; in the assay with ACHN renal, 31.7 µM; in the assay on SK-MEL-28 melanoma, 29.9 µM. The TGI in the assay with UO-31 renal was 28.4 µM; in the assay with NCI/ADR-RES ovarian, 33.2 µM; in the assay on OVCAR-8 ovarian, 31 µM; in the assay with NCI-H226 lung it was 43.6 µM; in the assay on 786-0 renal, 46.7 µM.
Consider `CC(=O)Nc1cccc(N2C(=O)/C(=C\c3cccc(Oc4ccccc4)c3)S(=O)(=O)C2c2ccccc2)c1` (stereo unspecified), for which the TGI is over 100 µM in the assay on SK-MEL-5 melanoma; 62.6 µM in the assay on MOLT-4 leukemia; over 100 µM in the assay with PC-3 prostate; over 100 µM in the assay with SW-620 colon; over 100 µM in the assay on ACHN renal; over 100 µM in the assay on SK-MEL-28 melanoma. In addition, the TGI in the assay on UO-31 renal, in the assay with NCI/ADR-RES ovarian, in the assay on OVCAR-8 ovarian, in the assay with NCI-H226 lung and in the assay with 786-0 renal was over 100 µM throughout.
With `CC(C)(C)OC(=O)N1C(OP(=O)(Oc2ccccc2)Oc2ccccc2)=CSc2ccccc21`, the TGI with SK-MEL-5 melanoma is over 100 µM; in the assay with MOLT-4 leukemia, 66 µM; in the assay on PC-3 prostate, over 100 µM; with SW-620 colon, over 100 µM; in the assay on ACHN renal, over 100 µM; with SK-MEL-28 melanoma it was over 100 µM. Besides, the TGI in the assay on UO-31 renal, with NCI/ADR-RES ovarian, with OVCAR-8 ovarian, in the assay with NCI-H226 lung and in the assay on 786-0 renal was over 100 µM each time.
In the case of `COc1cc(/C=N/c2nc3cc4sc(/N=C/c5cc(OC)c(OC)c(OC)c5)nc4cc3s2)cc(OC)c1OC`, the TGI was over 100 µM in the assay with SK-MEL-5 melanoma; over 100 µM in the assay with MOLT-4 leukemia; over 100 µM with PC-3 prostate; over 100 µM in the assay on SW-620 colon; over 100 µM with ACHN renal; 39.1 µM in the assay with SK-MEL-28 melanoma. The TGI in the assay with UO-31 renal, in the assay on NCI/ADR-RES ovarian, with OVCAR-8 ovarian, in the assay on NCI-H226 lung and in the assay with 786-0 renal was over 100 µM each time.
Consider `CC(=O)O[C@H]1CC[C@H]2[C@@H]3CCC4=CC(=O)C=C[C@]4(O)[C@H]3CC[C@]12C`, for which the TGI is 23.4 µM in the assay with SK-MEL-5 melanoma; 25.7 µM in the assay with MOLT-4 leukemia; over 93.1 µM in the assay with PC-3 prostate; over 57.5 µM in the assay with SW-620 colon; over 100 µM with ACHN renal; over 100 µM in the assay with SK-MEL-28 melanoma. Further, the TGI with UO-31 renal was over 100 µM; in the assay on NCI/ADR-RES ovarian, 46.2 µM; in the assay with OVCAR-8 ovarian, over 86 µM; in the assay on NCI-H226 lung, over 96.7 µM; with 786-0 renal it was over 100 µM.
As for `CON(C)C(=O)[C@H]1C[C@@]1(C)CO`, the TGI in the assay with SK-MEL-5 melanoma, in the assay on MOLT-4 leukemia, in the assay with PC-3 prostate, in the assay on SW-620 colon, in the assay on ACHN renal and in the assay with SK-MEL-28 melanoma was over 100 µM each time. Moreover, the TGI with UO-31 renal, in the assay with NCI/ADR-RES ovarian, in the assay on OVCAR-8 ovarian, in the assay with NCI-H226 lung and in the assay with 786-0 renal was over 100 µM throughout.
In the case of `O=C(Oc1c(Cl)cc(C2(c3cc(Cl)c(OC(=O)c4ccccc4)c(Cl)c3)CCCCC2)cc1Cl)c1ccccc1`, the TGI with SK-MEL-5 melanoma came to 22.9 µM; in the assay with MOLT-4 leukemia it was 20.7 µM; in the assay with PC-3 prostate it was 21.3 µM; in the assay on SW-620 colon, 39.5 µM; in the assay on ACHN renal it was 17.6 µM; with SK-MEL-28 melanoma it was 29.3 µM. The TGI in the assay with UO-31 renal was found to be 35.3 µM; in the assay on NCI/ADR-RES ovarian, 27.1 µM; with OVCAR-8 ovarian, 34.1 µM; in the assay with NCI-H226 lung, 42.5 µM; with 786-0 renal, 27.5 µM.
Regarding `CN(Cc1cn(O)c2nc(=N)nc(N)c-2n1)c1ccc(C(=O)NC23CC4CC(CC(C4)C2)C3)cc1`, the TGI with SK-MEL-5 melanoma, in the assay with MOLT-4 leukemia, in the assay with PC-3 prostate, in the assay on SW-620 colon, in the assay with ACHN renal and with SK-MEL-28 melanoma was over 100 µM each time. The TGI in the assay on UO-31 renal, with NCI/ADR-RES ovarian, in the assay on OVCAR-8 ovarian, in the assay on NCI-H226 lung and with 786-0 renal was over 100 µM each time.
Consider `O=C(CSCC(=O)N/N=C/c1ccccc1)N/N=C\c1ccccc1`, for which the TGI in the assay on SK-MEL-5 melanoma, in the assay on MOLT-4 leukemia, with PC-3 prostate, in the assay on SW-620 colon, with ACHN renal and with SK-MEL-28 melanoma was over 100 µM throughout. The TGI in the assay with UO-31 renal, in the assay with NCI/ADR-RES ovarian, in the assay with OVCAR-8 ovarian, with NCI-H226 lung and in the assay on 786-0 renal was over 100 µM each time.
As for `C=C1C(=O)O[C@@H]2/C=C(\C)CC/C=C(\C)CC[C@@]12O`, the TGI amounted to 15.5 µM in the assay on SK-MEL-5 melanoma; 6.15 µM in the assay on MOLT-4 leukemia; 15.6 µM with PC-3 prostate; 3.46 µM in the assay with SW-620 colon; 3.36 µM with ACHN renal; 13.3 µM with SK-MEL-28 melanoma. The TGI in the assay with UO-31 renal is 2.86 µM; with NCI/ADR-RES ovarian it was 41.6 µM; in the assay on OVCAR-8 ovarian, 5.18 µM; in the assay with NCI-H226 lung it was 59.2 µM; in the assay on 786-0 renal it was 2.71 µM.
With `CCCCN1C(=O)c2c(Br)sc(Br)c2C1=O`, the TGI in the assay with SK-MEL-5 melanoma was over 100 µM; with MOLT-4 leukemia it was 70.6 µM; in the assay with PC-3 prostate, over 100 µM; with SW-620 colon it was 66.2 µM; with ACHN renal it was over 100 µM; with SK-MEL-28 melanoma it was over 100 µM. Further, the TGI with UO-31 renal is over 100 µM; in the assay with NCI/ADR-RES ovarian, 88.2 µM; in the assay with OVCAR-8 ovarian, over 100 µM; in the assay on NCI-H226 lung, over 100 µM; with 786-0 renal it was over 100 µM.
For the molecule `CNC1Cc2c[nH]c3cccc(c23)C12C=C(C)C(=O)O2` (stereo unspecified), the TGI in the assay with SK-MEL-5 melanoma, with MOLT-4 leukemia, in the assay on PC-3 prostate, in the assay on SW-620 colon, with ACHN renal and with SK-MEL-28 melanoma was over 100 µM throughout. Further, the TGI in the assay on UO-31 renal, in the assay on NCI/ADR-RES ovarian, in the assay with OVCAR-8 ovarian, in the assay on NCI-H226 lung and in the assay with 786-0 renal was over 100 µM throughout.

The values are drawn from PubChem BioAssay (NCI).
